From US11535599B2, “Benzisoxazole derivative” (Sumitomo Pharma Co., Ltd., priority 2020, dated 2022)

What was measured:
human Cav3.1 = human Cav3.1 (Homo sapiens (Human), UniProt O43497); assay: T-type calcium channel inhibitory activity, whole-cell patch-clamp with HEK293 cell; type: cell-based; settings: for IC50: dose-reactive test, read-out: Cav3.1 IC50 (parenthesized)
Experimental: (§1) The inhibitory activity of the present compounds for T-type calcium channel was measured by whole-cell patch-clamp method with HEK293 cell (vendor of HEK 293 cell: ATCC, Manassas, Va., USA, builder of expressing cell: ChanTest Corporation., Cleveland, Ohio, USA), in which human Cav3.1, human Cav3.2, or human Cav3.3 is expressed. The culture medium used for HEK293 cell was prepared by adding fetal bovine serum (10%), sodium penicillin G (100 U/mL), streptomycin sulfate (100 μg/mL), and G418 (500 μg/mL) to a mixture medium of Dulbecco's modified Eagle's medium/Ham's F-12 medium. The whole-cell current was evaluated with IonWorks Barracuda system and Population Patch Clamp (both are provided by Molecular Device Corporation, Union City, Calif., USA). The extracellular recording solution used during the recording was Hanks' balanced salt solution. The internal recording solution used herein was 50 mmol/L CsCl, 90 mmol/L CsF, 5 mmol/L MgCl2, 1 mmol/L glycol ether diamine tetraacetic acid (EGTA), and 10 mmol/L 4-(2-hydroxyethyl)piperazine-1-ethanesulfonic acid (HEPES (pH 7.2). The holding voltage was held at −90 mV, then changed to −65 mV. 60 seconds later, −20 mV pulse was added thereto for 200 millisecond to activate the channel on plasma membrane and generate calcium current. The calcium current was recorded with an amplifier of IonWorks Barracuda system, and analyzed with a program of the system (Version 2.0.2). The record of the calcium current was obtained twice, before and after the addition of the compound. In the measurement after adding the compound, the cells were exposed to the recording solution containing the compound for more than 5 minutes and then the current was measured. In the analyses, the ratio of current readout after the compound addition per current readout before the compound addition was calculated, the calculated value was subtracted from one, and the obtained value was converted to percentage. […] The value obtained from each compound was canonicalized based on the two ends of values to obtain each inhibitory rate. The positive control compound used herein was TTA-A2 which is known as T-type calcium channel inhibitor. IC50 value was calculated with Hill equation.
(§2) Each inhibitory rate (%) against T-type calcium channel at the evaluation concentration of the present compound (600 μmol/L) is shown in Table 12, in which the parenthesized values are IC50 values (μmol/L)) calculated from the dose-reactive test.

human Cav3.2 = human Cav3.2 (Homo sapiens (Human), UniProt O95180); assay: as above; type: cell-based; settings: for IC50: dose-reactive test, read-out: Cav3.2 IC50 (parenthesized)
human Cav3.2, sequence (O95180 whole entry): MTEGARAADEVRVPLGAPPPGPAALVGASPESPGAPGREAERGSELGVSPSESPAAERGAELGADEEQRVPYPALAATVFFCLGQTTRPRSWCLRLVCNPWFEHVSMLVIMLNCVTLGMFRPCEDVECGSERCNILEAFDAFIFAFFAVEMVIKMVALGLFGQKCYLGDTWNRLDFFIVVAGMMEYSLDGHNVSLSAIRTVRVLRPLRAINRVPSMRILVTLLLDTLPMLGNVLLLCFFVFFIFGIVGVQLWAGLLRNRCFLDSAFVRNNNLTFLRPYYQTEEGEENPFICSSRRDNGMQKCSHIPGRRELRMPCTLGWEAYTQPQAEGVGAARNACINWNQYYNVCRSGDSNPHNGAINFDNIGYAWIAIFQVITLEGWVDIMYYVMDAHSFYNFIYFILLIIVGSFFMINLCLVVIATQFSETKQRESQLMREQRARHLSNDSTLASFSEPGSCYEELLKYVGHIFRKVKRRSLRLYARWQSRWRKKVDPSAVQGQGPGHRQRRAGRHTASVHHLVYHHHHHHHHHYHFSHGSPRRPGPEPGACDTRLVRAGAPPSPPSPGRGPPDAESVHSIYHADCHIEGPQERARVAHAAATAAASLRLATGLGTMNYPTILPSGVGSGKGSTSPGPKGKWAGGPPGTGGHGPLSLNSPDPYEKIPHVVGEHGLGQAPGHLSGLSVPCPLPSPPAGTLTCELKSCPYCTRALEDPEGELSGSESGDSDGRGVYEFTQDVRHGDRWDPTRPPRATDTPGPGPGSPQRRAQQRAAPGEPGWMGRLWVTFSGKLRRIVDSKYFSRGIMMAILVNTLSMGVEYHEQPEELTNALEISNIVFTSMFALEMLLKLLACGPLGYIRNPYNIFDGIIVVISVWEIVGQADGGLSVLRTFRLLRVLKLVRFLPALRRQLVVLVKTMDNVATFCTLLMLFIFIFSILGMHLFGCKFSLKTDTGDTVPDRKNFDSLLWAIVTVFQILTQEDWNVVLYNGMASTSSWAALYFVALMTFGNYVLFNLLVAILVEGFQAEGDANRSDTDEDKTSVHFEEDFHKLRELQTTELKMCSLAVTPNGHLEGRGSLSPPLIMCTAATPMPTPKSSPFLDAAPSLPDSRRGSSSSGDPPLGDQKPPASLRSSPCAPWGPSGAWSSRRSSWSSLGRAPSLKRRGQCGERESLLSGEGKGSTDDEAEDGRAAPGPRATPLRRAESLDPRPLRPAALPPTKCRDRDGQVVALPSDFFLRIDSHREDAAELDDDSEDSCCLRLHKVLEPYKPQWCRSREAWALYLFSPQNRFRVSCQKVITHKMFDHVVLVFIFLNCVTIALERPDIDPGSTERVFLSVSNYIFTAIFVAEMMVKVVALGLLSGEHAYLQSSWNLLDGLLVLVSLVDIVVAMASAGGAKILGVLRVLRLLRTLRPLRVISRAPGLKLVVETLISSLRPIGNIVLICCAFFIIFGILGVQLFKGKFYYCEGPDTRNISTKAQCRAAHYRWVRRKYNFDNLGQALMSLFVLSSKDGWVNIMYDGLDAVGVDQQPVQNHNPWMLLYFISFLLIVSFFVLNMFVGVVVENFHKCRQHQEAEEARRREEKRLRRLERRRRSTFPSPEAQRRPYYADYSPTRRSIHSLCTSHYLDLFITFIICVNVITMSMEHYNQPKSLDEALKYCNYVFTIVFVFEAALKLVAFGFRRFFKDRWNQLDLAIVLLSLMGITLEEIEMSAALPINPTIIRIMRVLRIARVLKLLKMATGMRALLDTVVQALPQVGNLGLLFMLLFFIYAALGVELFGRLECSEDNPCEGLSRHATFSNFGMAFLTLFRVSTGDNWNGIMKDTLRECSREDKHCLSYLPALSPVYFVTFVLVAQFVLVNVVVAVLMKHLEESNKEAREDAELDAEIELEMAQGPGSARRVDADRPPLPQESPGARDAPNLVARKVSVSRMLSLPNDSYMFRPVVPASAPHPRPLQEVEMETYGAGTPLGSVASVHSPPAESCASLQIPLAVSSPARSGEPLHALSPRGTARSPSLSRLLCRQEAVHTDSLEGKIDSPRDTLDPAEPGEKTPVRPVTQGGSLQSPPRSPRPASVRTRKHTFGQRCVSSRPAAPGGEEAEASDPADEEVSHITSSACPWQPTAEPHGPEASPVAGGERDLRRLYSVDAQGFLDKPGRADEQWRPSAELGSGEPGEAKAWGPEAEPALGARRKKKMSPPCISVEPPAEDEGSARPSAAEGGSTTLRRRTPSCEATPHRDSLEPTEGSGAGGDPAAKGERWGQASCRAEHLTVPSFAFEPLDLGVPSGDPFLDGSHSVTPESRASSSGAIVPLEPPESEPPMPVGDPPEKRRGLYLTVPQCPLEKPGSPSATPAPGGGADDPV
Experimental: as §1, §2

human Cav3.3 = human Cav3.3 (Homo sapiens (Human), UniProt Q9P0X4); assay: as above; type: cell-based; settings: for IC50: dose-reactive test, read-out: Cav3.3 IC50 (parenthesized)
Experimental: as §1, §2

[1] = tested on: unilateral lesion model of nigrostriatal dopamine neuron induced with 6-OHDA; assay: Extending duration of levodopa-induced rotational behavior in 6-OHDA unilateral lesion model; type: in vivo, rat; settings: Examples 10 or 30 mg/kg oral; rasagiline 0.6 mg/kg; with levodopa 5 mg/kg i.p.
[2] = tested on: tacrine-induced Parkinson's disease tremor model; assay: Anti-tremor effect in tacrine-induced Parkinson's disease tremor model; type: in vivo, rat; settings: Example 1 10-100 mg/kg, Example 13 3-100 mg/kg oral; tacrine 2.5 mg/kg i.p.; counted 10 minutes
Excerpt: One of the causes of tremor in Parkinson's disease is thought to be a decrease of intracerebral dopamine content, said decrease can hyper-activate the cholinergic nervous system in a counteractive manner to cause the symptom. In the present model, an acetylcholinesterase inhibitor activates the cholinergic nervous system, which breaks down the balance between intracerebral dopamine and acetylcholine to initiate a tremor symptom. Thus, the model is well known as a drug-induced model suffering from tremor in Parkinson's disease. With the present model, the effect of the present compound for inhibiting the tremor in Parkinson's disease was evaluated.
In the present test, male Slc: SD rats (Japan SLC, Inc.) were used. The present compound (Example 1 (10 mg/kg, 30 mg/kg, or 100 mg/kg), Example 13 (3 mg/kg, 10 mg/kg, 30 mg/kg, or 100 mg/kg)) was orally administered to the rat. One hour later, tacrine (2.5 mg/kg) was intraperitoneally administered to the rat. Ten minutes after the administration of tacrine, the number of tremulous jaw movements was counted for 10 minutes.

Rat striatum MAOB = Rat striatum MAOB (Rattus norvegicus (Rat), UniProt P19643); assay: Activity for inhibiting monoamine oxidase B (MAOB); type: biochemical; settings: [14C] β-PEA substrate; read-out: Rat striatum MAOB IC50
Experimental: MAOB is an enzyme involved in oxidative de-amino acid reaction of an endogenous monoamine neurotransmitter such as dopamine. […] The effect of the present compounds for inhibiting MAOB in rat striatum and simian striatum was tested.
Mitochondria⋅synaptosome fraction containing MAOB was prepared according to the following procedure. To striata of male Slc: Wistar rat (Japan SLC, Inc.) or male cynomolgus monkey (HAMRI CO., LTD.) was added 0.32 mol/L aqueous sucrose by 10 mL per 1 gram as wet weight of the tissue, and the mixture was homogenized. The homogenate was centrifuged at 4° C. at 1,000 g for 10 minutes, and the obtained supernatant was centrifuged again at 4° C. at 17,200 g for 20 minutes. To the obtained precipitate was added a prepared buffer solution (10 mmol/L Tris-HCl buffer solution (pH 7.4), 0.25 mol/L aqueous sucrose, 0.5 mmol/L EDTA-2K) by 10 mL per 1 gram as wet weight of the original tissue, and the mixture was centrifuged again at 4° C. at 17,200 g for 20 minutes. To the obtained precipitate was added the prepared buffer solution by 40 mL per 1 gram as wet weight of the original tissue. The mixture was suspended to be used as an enzyme homogenate solution.
As a substance to be degraded by MAOB, ^14C-labeled β-phenylethylamine ([^14C] β-PEA) was used. [^14C] β-PEA and the present compound solution diluted to each concentration were incubated with the enzyme homogenate solution at 37° C. for a given period, and then the reaction was stopped by adding 3 mol/L cold HCl thereto. The reaction product was extracted with a mixture of water-saturated toluene and ethyl acetate (1:1). The supernatant organic layer was separated, a liquid scintillation cocktail (ACSII, GE Healthcare) was added to the separated organic layer, and the radioactivity was measured with a liquid scintillation counter (TRI-CARB 3100TR, Packard). The IC50 value of each compound was determined based on two parameter logistic model with the inhibitory data of each concentration, said data were obtained from plural trials.

human Cav3.1, sequence (O43497 whole entry): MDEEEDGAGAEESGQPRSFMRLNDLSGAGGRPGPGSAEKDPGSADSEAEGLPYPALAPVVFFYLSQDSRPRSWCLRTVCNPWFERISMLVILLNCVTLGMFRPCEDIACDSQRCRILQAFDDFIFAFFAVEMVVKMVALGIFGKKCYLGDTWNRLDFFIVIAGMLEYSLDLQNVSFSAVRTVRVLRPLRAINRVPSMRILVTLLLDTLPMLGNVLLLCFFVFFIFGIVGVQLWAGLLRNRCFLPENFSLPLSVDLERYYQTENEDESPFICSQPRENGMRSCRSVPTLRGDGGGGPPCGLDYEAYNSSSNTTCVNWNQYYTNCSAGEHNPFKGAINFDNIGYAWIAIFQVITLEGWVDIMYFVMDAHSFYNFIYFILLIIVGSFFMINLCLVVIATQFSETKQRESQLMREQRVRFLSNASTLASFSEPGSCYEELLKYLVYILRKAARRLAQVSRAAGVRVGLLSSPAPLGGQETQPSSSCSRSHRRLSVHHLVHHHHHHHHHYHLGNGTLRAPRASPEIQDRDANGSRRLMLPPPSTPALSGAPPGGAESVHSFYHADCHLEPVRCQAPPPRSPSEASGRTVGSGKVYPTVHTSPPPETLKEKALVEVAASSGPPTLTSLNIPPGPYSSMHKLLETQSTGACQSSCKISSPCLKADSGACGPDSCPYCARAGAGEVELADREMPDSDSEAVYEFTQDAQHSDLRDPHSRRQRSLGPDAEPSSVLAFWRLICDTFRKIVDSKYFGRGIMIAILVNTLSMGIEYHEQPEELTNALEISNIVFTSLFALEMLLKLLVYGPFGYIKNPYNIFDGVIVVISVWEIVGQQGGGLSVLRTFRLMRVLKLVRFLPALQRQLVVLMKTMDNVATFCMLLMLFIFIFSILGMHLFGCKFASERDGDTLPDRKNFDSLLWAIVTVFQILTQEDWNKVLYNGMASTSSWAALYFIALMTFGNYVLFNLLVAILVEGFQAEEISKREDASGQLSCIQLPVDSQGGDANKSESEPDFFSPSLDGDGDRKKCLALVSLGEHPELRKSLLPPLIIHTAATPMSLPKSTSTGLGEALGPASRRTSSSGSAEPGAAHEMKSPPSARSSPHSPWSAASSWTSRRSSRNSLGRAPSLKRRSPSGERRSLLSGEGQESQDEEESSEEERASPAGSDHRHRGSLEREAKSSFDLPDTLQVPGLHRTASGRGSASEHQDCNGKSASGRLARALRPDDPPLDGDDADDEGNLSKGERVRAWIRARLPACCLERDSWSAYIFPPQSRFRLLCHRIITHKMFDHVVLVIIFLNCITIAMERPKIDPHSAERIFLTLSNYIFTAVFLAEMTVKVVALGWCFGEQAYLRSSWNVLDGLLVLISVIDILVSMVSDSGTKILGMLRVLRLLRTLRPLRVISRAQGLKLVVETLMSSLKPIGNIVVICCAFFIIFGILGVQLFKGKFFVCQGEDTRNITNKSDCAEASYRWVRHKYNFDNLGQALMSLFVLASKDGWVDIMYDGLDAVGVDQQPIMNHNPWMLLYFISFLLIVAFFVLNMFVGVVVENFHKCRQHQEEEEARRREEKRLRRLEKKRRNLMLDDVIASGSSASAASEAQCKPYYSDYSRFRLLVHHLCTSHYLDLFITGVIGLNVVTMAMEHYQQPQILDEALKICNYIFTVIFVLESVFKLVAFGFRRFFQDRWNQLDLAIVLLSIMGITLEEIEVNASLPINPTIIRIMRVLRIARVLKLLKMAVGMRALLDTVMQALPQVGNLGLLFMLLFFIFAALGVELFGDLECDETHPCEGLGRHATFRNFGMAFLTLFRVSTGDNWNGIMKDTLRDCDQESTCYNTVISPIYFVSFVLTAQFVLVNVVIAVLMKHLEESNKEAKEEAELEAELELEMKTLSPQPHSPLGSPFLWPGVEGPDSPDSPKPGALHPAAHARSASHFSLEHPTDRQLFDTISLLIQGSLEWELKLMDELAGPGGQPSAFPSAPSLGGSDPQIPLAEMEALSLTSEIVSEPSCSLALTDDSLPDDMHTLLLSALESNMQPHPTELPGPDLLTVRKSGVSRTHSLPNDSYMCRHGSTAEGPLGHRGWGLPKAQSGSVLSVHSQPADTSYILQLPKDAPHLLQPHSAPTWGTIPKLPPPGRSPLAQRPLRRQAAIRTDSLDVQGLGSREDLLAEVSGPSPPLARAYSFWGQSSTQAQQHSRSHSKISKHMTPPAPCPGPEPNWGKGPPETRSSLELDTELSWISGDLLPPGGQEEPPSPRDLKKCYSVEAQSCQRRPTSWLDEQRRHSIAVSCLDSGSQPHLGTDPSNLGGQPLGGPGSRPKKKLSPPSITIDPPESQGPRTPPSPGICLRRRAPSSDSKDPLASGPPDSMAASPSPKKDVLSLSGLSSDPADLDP

**Q.** Which results are given for `CC(c1noc2ccccc12)S(N)(=O)=O` (stereo not drawn) [Example 1, 1-(Benzo[d]isoxazol-3-yl)ethane-1-sulfonamide]?
**A.** Cav3.1 % inhibitory rate (human Cav3.1; 600 μmol/L): 46.0%; IC50 (human Cav3.1): 449 µM; Cav3.2 % inhibitory rate (human Cav3.2; 600 μmol/L): 33.0%; IC50 (human Cav3.2): 848 µM; Cav3.3 % inhibitory rate (human Cav3.3; 600 μmol/L): 30.7%; IC50 (human Cav3.3): 922 µM; rotational number in the late phase (100-120 minutes) [1]: significantly increased the rotational number in the late phase; number of tremulous jaw movements [2]: significantly decreased the number of tremulous jaw movements per unit time; IC50 (Rat striatum MAOB): 349 µM

**Q.** How did the inhibition at 600 µM (human Cav3.1; HEK293, 600 μmol/L, read-out: Cav3.1 % inhibitory rate) turn out when `C[C@H](c1noc2ccccc12)S(N)(=O)=O` [Example 13, (1R)-1-(1,2-benzoxazol-3-yl)ethane-1-sulfonamide] was run?
**A.** 50.9%

**Q.** And the IC50 (human Cav3.1)?
**A.** 465 µM

**Q.** And the inhibition at 600 µM (human Cav3.2; HEK293, 600 μmol/L, read-out: Cav3.2 % inhibitory rate)?
**A.** 42.6%

**Q.** What about the IC50 (human Cav3.2) of the same molecule?
**A.** 713 µM

**Q.** What about the inhibition at 600 µM (human Cav3.3; HEK293, 600 μmol/L, read-out: Cav3.3 % inhibitory rate) of the same molecule?
**A.** 39.9%

**Q.** And the IC50 (human Cav3.3)?
**A.** 746 µM

**Q.** And the “rotational number in the late phase (100-120 minutes)” value [1]?
**A.** significantly increased the rotational number in the late phase

**Q.** What about the “number of tremulous jaw movements” value [2] of the same molecule?
**A.** significantly decreased the number of tremulous jaw movements per unit time

**Q.** And the IC50 (Rat striatum MAOB)?
**A.** > 600 µM
